# Data reported in a melting point compilation (Tetko et al.; mined from patent text by program, amines drawn as free bases though some values may be those of a salt).
row,Compound,melting point
1,CSc1ccc2c3c(cccc13)C(=O)N2CCCC#N,120 to 122 °C
2,COc1ccc(Cl)cc1-c1nnn(-c2ccc(C(F)(F)F)cc2Cl)c1N,153 °C
3,CCCCCCCCCCCCCCCCCCNC(=O)NCCCCCCN,123 to 168 °C
4,O=[N+]([O-])c1cn2c(n1)OC[C@@H](OCc1ccc(-c3nc4cc(OC(F)(F)F)ccc4[nH]3)cc1)C2,98 to 99 °C
5,N#Cc1ccc(-c2nc(Cl)c3c(n2)CCCC3)cc1,190 °C
6,CCCCCC(C)C(C)c1cc(O)c2c(c1)OC(C)(C)C1=C2CN(CC(=O)Nc2ccc(Cl)cc2)CC1 (stereo not given),159 to 160 °C
7,CN(C)C1=NS(=O)(=O)N=C1N[C@@H]1c2cc(OC(F)(F)F)ccc2OC(C)(C)[C@H]1O,135 to 140 °C
8,O=CNC1CCc2ccccc2N(C=O)C1 (stereo not given),130 °C
9,CC1CC(=O)c2cc(Cl)ccc2O1 (stereo not given),100 to 102 °C
10,Cn1c2ccc(Br)cc2c2cc(C(=O)N3CCOCC3)sc21,184 °C
11,CC(=O)OC1CSC(Oc2ccccc2C(C)=O)C(OC(C)=O)C1OC(C)=O (stereo not given),112 °C
12,COC1(C)CCc2cc(O)c(C(C)(C)C)cc2O1 (stereo not given),115 to 117 °C
13,CCN1c2ncc(C=O)cc2C(=O)N(C)c2ccc(Cl)nc21,199 to 201 °C
14,Cn1cc(Br)cc(Nc2cc(C3CC3)n[nH]2)c1=O,203 to 204 °C
15,CCC(CCNC(=O)C(C#N)=Cc1cc(O)c(O)c(OC)c1)NC(=O)C(C#N)=Cc1cc(O)c(O)c(OC)c1 (stereo not given),256 °C
16,O=c1[nH]c(NCCCOc2cccc(CN3CCCCC3)c2)ncc1[N+](=O)[O-],161 to 164 °C
17,Cc1ccc(NC(=S)N2CCC(O)C2)c(C)c1 (stereo not given),164 to 166 °C
18,COc1ccccc1NC(=O)NC1N=C(c2ccc(Cl)cc2)c2c(sc(C)c2C)-n2c(C)nnc21 (stereo not given),261 to 262 °C
19,O=C1[C@H](CC[C@H](O)c2ccc(F)cc2)[C@@H](c2ccc(OS(=O)(=O)C(F)(F)F)cc2)N1c1ccc(F)cc1,122 °C
20,CC(=O)NCCSc1cc(N)c([N+](=O)[O-])cc1N,162 °C
21,CC(C)(Cc1c(C(=O)c2ccccc2)c2cc(OCc3ccc4ccccc4n3)ccc2n1Cc1ccc(Cl)cc1)C(=O)O,165 to 166 °C
22,CC(=O)OCC(C)(C)C(OC(C)=O)C(Oc1ccc(Cl)cc1)n1cncn1 (stereo not given),84 to 87 °C
23,CC(C)OC(=O)Cn1c(=O)n(C)c(=O)n(-c2cc(-n3c(=O)n4n(c3=S)CCCC4)c(F)cc2Cl)c1=O,136 to 142 °C
24,Cc1nn(C)c(C(N)=O)c1[N+](=O)[O-],153 to 155 °C

row,Compound,melting point
1,COc1ccc2c(c1)CC(CC#N)C2=O (stereo not given),117 to 120 °C
2,CCNc1nc(SC)ncc1C=Nc1cc(OC)cc(OC)c1,100 to 105 °C
3,COC(=O)Nc1cc(NC(=O)NSC(=S)N(C)C)ccc1C,180 to 185 °C
4,CCOC(=O)c1ncoc1-c1cc(OC)c(OC)c([N+](=O)[O-])c1,109 to 110 °C
5,Cc1nnc2n1-c1ccc(C#CCn3ccc4ccccc43)cc1C(c1ccccc1F)=NC2,167 to 169 °C
6,COc1cccc(C(CN(C)C)c2nnc3n2-c2ccc(Cl)cc2C(c2ccccc2)=NC3)c1 (stereo not given),139 to 140 °C
7,CCCCCCCCOc1ccc(-c2ccc(-c3ccc4c(c3)C(CC)(CC)c3cc(-c5ccc(-c6ccc(OCCCCCCCC)cc6)cc5)ccc3-4)cc2)cc1,146 °C
8,O=C(O)C(=O)c1ccsc1,63 °C
9,CCOC(=O)CCc1ccc(C)nc1,36 to 37 °C
10,COc1cc2oc(=O)c(CCO)c(C)c2c(OC)c1OC,95 to 97 °C
11,CCOC(=O)C(C)Oc1ncn(-c2ccc(OC(F)(F)F)cc2)n1 (stereo not given),52 to 53 °C
12,COc1cc(-c2n[nH]c(SC)c2C)c(F)cc1Cl,95 to 100 °C
13,CNC(=O)N1CCc2nc(N)sc2C1,202 °C
14,CCCCC(=O)c1c(CBr)nc2cc(OC)c(OC)cc2c1-c1ccc(OC)c(OC)c1,150 to 151 °C
15,CCCn1c(=O)c2[nH]c(C3CCCS3)nc2n(CCC)c1=O (stereo not given),224 to 226 °C
16,CC(C)(C)c1ccc(N2C(=O)c3ccc4c5cccc6cccc(c7ccc(c3c47)C2=O)c65)cc1,> 330 °C
17,COc1cc(C=C2NC(=O)N(C)C2=O)ccc1O,227 to 228 °C
18,CCCN(CCC)C(=O)Cc1ccc(O)c2[nH]ncc12,164 to 165 °C
19,COc1cc2c(cc1F)CCC2=O,152 to 154 °C
20,COc1cc(C(C)=O)ccc1OCCCN1CCC(C(O)(c2ccc(F)c(F)c2)c2ccc(F)c(F)c2)CC1,143 to 146 °C
21,CC(C)=CCCC(C)=CCCC(C)=CCCC(C)=CC=C1SC(=S)N(CC(=O)O)C1=O,35 to 37 °C
22,Cc1ncnc(-c2ccc(Cl)cc2F)c1Cl,77 to 79 °C
23,Nc1cccc(-c2ccc(CCN3C4CCC3CC(N)C4)cc2)n1 (stereo not given),> 300 °C
24,CP(=O)(O)CC(F)CN (stereo not given),78 to 84 °C

# Further lines, results first:
row,melting point,Compound
1,158 to 161 °C,CCn1nc(OCC(=O)C(C)(C)C)c(-c2ccccc2)c1-c1ccc(S(C)(=O)=O)cc1
2,274 to 275 °C,CNC(=O)CCc1cn(Cc2ccc(C(=O)O)cc2OC)c2cc(C(=O)NCC3CCCC3)ccc12
3,135 to 137 °C,CCc1c(C(F)(F)F)noc1NS(=O)(=O)c1cccc2ccccc12
4,105 to 106 °C,Nc1ccccc1NCCO
5,95 to 97 °C,CC[C@@H](c1ccccc1)N(Cc1ccc(C(=O)O)c(F)c1)S(=O)(=O)c1ccc(Cl)cc1
6,149 to 151 °C,OC1(c2ccc(F)cc2)CCN(Cc2ccnc(-c3ccccc3)c2)CC1
7,108 to 109 °C,Cc1c(Cl)cccc1S(=O)(=O)Nc1ccc2sccc2c1
8,197 to 198 °C,Cc1ccc(NS(=O)(=O)c2ccccc2)c(C(=O)O)c1
9,208 to 210 °C,COc1cc2ncc(C#N)c(Nc3ccc(CCO)cc3)c2cc1OC
10,190 to 191 °C,COC(=O)c1c(CN2CCC(S(C)(=O)=O)CC2)c(=O)c2ccc(F)cc2n1-c1ccccc1
11,108 to 110 °C,O=C1c2cc(OCc3ccccc3)ccc2OCC1Cn1ccnc1 (stereo not given)
12,223 to 225 °C,Cc1ccc(-c2ccc(/C=C/C(=O)O)s2)cc1
13,161 to 163 °C,COc1ccc(-c2nc([N+](=O)[O-])n(C(=O)c3ccccc3)c2-c2ccc(OC)cc2)cc1
14,235 to 237 °C,O=C1OC2(C=C1c1ccccc1)C=C(c1ccccc1)C(=O)O2
15,103 to 104 °C,CCCC(CC(=O)NC(=O)OC(C)(C)C)Nc1ccccc1 (stereo not given)
16,208 to 209 °C,Cc1cc(Cn2nnc(C(N)=O)c2N)cc(C)c1C(=O)c1ccc(Cl)cc1
17,96 to 97 °C,COc1ccc2c(c1)c(CC(=O)OCC(=O)OC(C)(C)C)c(C)n2C(=O)c1ccc(Cl)cc1
18,117 to 119 °C,O=C(Cc1ccccc1C1CCCC1)N[C@H]1CCN(CCc2ccccc2)C1
19,211 to 213 °C,Cc1ccccc1C(=O)Nc1ccc(C(=O)N2CCCC(NC=O)c3ccccc32)cc1 (stereo not given)
20,259 to 260 °C,O=C1C(O)=C(c2ccccc2)C(=O)C(O)=C1/C=C/c1ccccc1
21,133 to 137 °C,COc1ccccc1Oc1c(Cl)nc(-c2ncccn2)nc1OCCO
22,160 to 161 °C,N#Cc1cc(C(F)(F)F)ccc1Nc1ccccc1[N+](=O)[O-]
23,95 to 98 °C,CCC(O)c1ccccc1CS(=O)(=O)NC(=O)Nc1nc(OC)cc(OC)n1 (stereo not given)
24,100 to 102 °C,CC(O)CC1NC(=O)c2ccccc21 (stereo not given)
25,57 to 58 °C,O[C@@H]1CCCC[C@H]1Nc1ccccc1 (relative stereo)
26,226 to 228 °C,COC(=O)C(=O)c1c[nH]c2ccccc12

row,melting point,Compound
1,248 to 249 °C,Cc1c(-c2ccccc2)[nH]c(=O)n1C1CCN(Cc2cccc(Cl)c2)CC1
2,186 to 190 °C,Cc1noc(NS(=O)(=O)c2ccsc2C(=O)NCc2ccccc2)c1Br
3,83 °C,CS(=O)(=O)c1cc(C(O)C2CCCCC2)c2ccccc2n1 (stereo not given)
4,265 to 266 °C,COc1ccc(-n2c(-c3sc(Nc4ccccc4)nc3C)nc3ccccc3c2=O)cc1
5,93 to 94 °C,O=C(OCC1CCCCO1)c1ccccc1Nc1ccnc2cc(Cl)ccc12 (stereo not given)
6,67 to 76 °C,COCCN(C)S(=O)(=O)c1ccccc1Nc1nc(Nc2cc3c(cc2OC)CCN(CC(=O)N(C)C)CC3)ncc1Cl
7,257 to 258 °C,CC(C)(C)C(NC(=O)c1ccc(Cl)cc1)Nc1c(Nc2cccnc2)c(=O)c1=O (stereo not given)
8,253 °C,CCOC(=O)c1cn(C2CC2)c2c(OC(F)F)c(Br)ccc2c1=O
9,197 to 198 °C,Nc1cc(-c2ccccc2)c(S(N)(=O)=O)cc1S(N)(=O)=O
10,126 to 128 °C,COC1=CC(=O)OC1C(O)c1ccccc1C(F)(F)F (stereo not given)
11,133 to 134 °C,COCOc1ccccc1C=CC(=O)O
12,116 to 118 °C,CCc1nc2c(n1Cc1ccc(OC)cc1)C(=O)N(C)CN2c1ccc(Cl)cc1Cl
13,144 to 146 °C,CCOC(=O)c1ccc(NCc2ccc(OCc3ccccc3)cc2)cc1
14,> 200 °C,CC(C)(C)OC(=O)NC(=N)c1ccc(C(=O)O)cc1
15,257 to 260 °C,CCC(=O)c1cc(O)cc2cc(-c3ccc(O)cc3)oc12
16,177 to 179 °C,COC(=O)COc1cccc2c(O)cccc12
17,210 °C,COc1cc(NC(=O)c2csc(NC(=O)NCc3ccccc3)n2)ccc1OCC(=O)O
18,91 to 92 °C,CCOC(=O)c1cc2cc(Oc3ccc(S(C)(=O)=O)cc3)cc(OCc3nccn3C)c2[nH]1
19,140 °C,CN(C(=O)Nc1ccc(Cl)c(Cl)c1)S(C)(=O)=O
20,142 to 143 °C,CC1(C(=O)Cc2ccc(Cl)cc2[N+](=O)[O-])CC=CS1 (stereo not given)
21,41 to 43 °C,COc1cccc(CSCCNC(=O)c2c(OC)cccc2OC)c1
22,129 to 131 °C,CN(C)C(=O)c1ccc([N+](=O)[O-])cc1S(=O)(=O)Cl
23,234 to 235 °C,Sc1nc2ccccc2n1Cc1c(Cl)cccc1Cl
24,150 to 152 °C,CC(C)n1cnc2c(N[C@H](CO)c3ccccc3)nc(Cl)nc21
25,62 to 63 °C,CN(CCO)c1nc2ccccc2o1
26,87 to 88 °C,CCC1=CC(=O)c2ccccc2C1=O
